Marks after values point to notes of the source that are not given here.
Experiment: X-ray CT of volume, mean density and 3D shape of Radiesse nodules and injected hyperosmotic solutions (Example 4)
Assay type: in vivo, Pig (Sus scrofa domesticus)
Conditions: for Change in Volume as percent of Injected Volume, Day 14/15: Example 4 (Day 15); for Change in Volume as percent of Injected Volume, Day 14/15 / Change in Volume as percent of Injected Volume, Day 0 + 1 h 15 / Change in Volume as percent of Injected Volume, Day 0 + 2 h / Change in Volume as percent of Injected Volume, Day 0 + 4 h / Change in Volume as percent of Injected Volume, Day 1 / Change in Volume as percent of Injected Volume, Day 3 / Change in Volume as percent of Injected Volume, Day 7: mean; for Change in Volume as percent of Injected Volume, Day 0 + 1 h 15 / Change in Volume as percent of Injected Volume, Day 0 + 2 h / Change in Volume as percent of Injected Volume, Day 0 + 4 h / Change in Volume as percent of Injected Volume, Day 1 / Change in Volume as percent of Injected Volume, Day 3 / Change in Volume as percent of Injected Volume, Day 7: Example 4
Description: Pigs are injected by SC route with Radiesse® filler without Lidocaine (Test item). One hour after the Radiesse® filler injection, selected different hyperosmotic solutions are injected by SC route into the dermal filler nodules. For two Radiesse® filler nodules per pig, no additional product is injected; these nodules are used as controls.
The evolution over time of the volume and mean density of the Radiesse® filler nodules with injection of the different solutions are assessed by CT-scanner at selected time points: on Day 0, at about 1 hour (h) and 15 minutes (min), 2 h and 4 h after the Radiesse® filler injection and solution injection, and then, on Day 1 (about 24 h after Radiesse® filler injection), Day 3, Day 7 and Day 15.
On Day 0, 4 pigs received ten (10) SC injections of Radiesse® dermal filler (P20WK-EE-01) of about 500 μl/nodule in the flank (ventral area) at T=0. One hour after Radiesse® dermal filler injections (T=1 h), about 1.5 ml of different hyperosmotic solutions (P20WK-EE-02 to P20WK-EE-05) were each injected into 8 Radiesse® filler nodules. Two Radiesse® filler nodules per animal were not injected with hyperosmotic solution and served as controls.
A total of 7 CT-scans were performed at 1 h 15±10 min, 2 h±15 min, 4 h±20 min, 1 day (24 h±1 h), 3, 7 and 15 days after injection of the dermal filler, as described in FIG. 9A.
On Day 0 (TO), 10 SC injections of test item P20WK-EE-01 (Radiesse® dermal filler) were performed in the ventral area (five nodules on each flank of the ventral area). For each SC nodule, a theoretical volume of 500 μL was administered. One hour (±5 min) after injection of dermal filler, SC injections of the different solutions (prepared on Day −3) were performed into 8 nodules of dermal filler. For each injection of solution, a theoretical volume of 1.5 mL was administered (see, e.g., injection scheme in Table 11).
In order to measure the volume, the mean density and to visualize the 3D shape of the dermal filler SC injected (in presence or absence of different hyperosmotic solutions), in vivo CT-scans were performed on Day 0: 1 h 15 (±10 min), 2 h (±15 min) and 4 h (±20 min), on Day 1 (24 h±1 h), Day 3, Day 7 and Day 15.
The CT acquisitions are analyzed with the software Avizo version 9.2.0. The objective of this analysis was to assess the dispersion over time of the Radiesse® dermal filler injected by SC route after injection of different hyperosmotic solutions.
To achieve this goal, the evolution of these parameters is observed over time: • the volume of each nodule (Radiesse® dermal filler and solution separately), • the mean density of each nodule (Radiesse® dermal filler and solution separately), • the 3D shape of each nodule by visualization of the 3D model of each nodule at each time point (Radiesse® dermal filler with or without solution separately). Segmentation:
An image segmentation is performed on each CT acquisition on the […] reconstruction. At first, a manual pre-segmentation is performed around each nodule in order to roughly isolate the voxels corresponding to Radiesse® dermal filler and hyperosmotic solutions and defined a Region of Interest (ROI). Secondly, an automatic segmentation is applied on the ROI previously defined using a global grey level thresholding procedure. […] Similarly, all the voxels having a grey level between these HU values are selected in a ROI and corresponds to the pure solution or solution containing some dispersed Radiesse® dermal filler (see, FIG. 10).
Then, a 3D model of these selected voxels (see, FIG. 11) is obtained allowing the calculation of the total volume (in mm^3) and the mean density (in HU) of the two defined compartments of each nodule of Pure Radiesse® dermal filler and of each solution containing or not containing dispersed Radiesse® dermal filler.
The volume (in mm^3) of the ROI of Radiesse® dermal filler and the solutions corresponding to each nodule and the mean density (in HU) of each nodule are calculated at each time point.

## O=C([O-])O.[Na+] [sol 14, Sodium hydrogen carbonate (sodium bicarbonate)]
  Change in Volume as percent of Injected Volume, Day 14/15: 1977%
  Change in Volume as percent of Injected Volume, Day 0 + 1 h 15: 1529* percent
  Change in Volume as percent of Injected Volume, Day 0 + 2 h: 1561%
  Change in Volume as percent of Injected Volume, Day 0 + 4 h: 1799%
  Change in Volume as percent of Injected Volume, Day 1: 2214%
  Change in Volume as percent of Injected Volume, Day 3: 2014%
  Change in Volume as percent of Injected Volume, Day 7: 2345%
Between −100 HU and 250 HU
  average of the mean density of solution nodules, T=1 h 15: 25.7±5.5 HU
  average of the mean density of solution nodules, T=2 h: 14.1±7.1 HU
  mean volume of solution with potential dispersed Radiesse, Day 15: 1352.3±570.6 mm^3
  mean volume of solution with potential dispersed Radiesse, T=2 h: 2577.4±54.0 mm^3
  variation of solution volume on Day 15 compared to the injected volume on T=1 h: −1.4%
Pure Radiesse >250 HU
  average of the mean density of nodules, Day 15: 441.3±62.9 HU

## O.O.O=C([O-])CC(O)(CC(=O)[O-])C(=O)[O-].[Na+].[Na+].[Na+] [sol 9, Sodium citrate, dihydrate]
  Change in Volume as percent of Injected Volume, Day 14/15: 1969%
  Change in Volume as percent of Injected Volume, Day 0 + 1 h 15: 1488%
  Change in Volume as percent of Injected Volume, Day 0 + 2 h: 1571%
  Change in Volume as percent of Injected Volume, Day 0 + 4 h: 1901%
  Change in Volume as percent of Injected Volume, Day 1: 2210%
  Change in Volume as percent of Injected Volume, Day 3: 2010%
  Change in Volume as percent of Injected Volume, Day 7: 2243%
Between −100 HU and 250 HU
  average of the mean density of solution nodules, T=1 h 15: 18.4±7.0 HU
  average of the mean density of solution nodules, T=2 h: 2.1±7.9 HU
  mean volume of solution with potential dispersed Radiesse, T=2 h: 4319.7±989.2 mm^3
  variation of the average of the mean density of solutions, Day 15 compared to T=1 h 15: 347.7%
Pure Radiesse >250 HU
  average of the mean density of nodules, Day 1: 447.0±34.1 HU
  average of the mean density of nodules, Day 3: 478.2±64.8 HU

Source: patent US12239661B2, “Methods and compositions for treating undesired implanted tissue filler” (priority 2019, dated 2025)
